Results reported in patent EP3294317B1, “ENHANCED ANTIBIOTIC COMPOSITION” (Universitat Autònoma de Barcelona, priority 2015, dated 2016).

How the values were obtained:
[1] = system: Stenotrophomonas maltophilia ATCC 13637; assay: Colistin broth microdilution MIC with potentiator compounds (Example 1); assay type: cell-based; conditions: S. maltophilia ATCC 13637; MIC in the presence of 1.0% DMSO / MIC in the presence of 0.1 mM potentiator compound and 1.0% DMSO; positive = increased, negative = decreased susceptibility, 1 = no effect
[2] = system: Escherichia coli ATCC 25922; assay: as above; assay type: cell-based; conditions: E. coli ATCC 25922; MIC in the presence of 1.0% DMSO / MIC in the presence of 0.1 mM potentiator compound and 1.0% DMSO; positive = increased, negative = decreased susceptibility, 1 = no effect
[3] = system: Escherichia coli ATCC 9637; assay: as above; assay type: cell-based; conditions: E. coli ATCC 9637; MIC in the presence of 1.0% DMSO / MIC in the presence of 0.1 mM potentiator compound and 1.0% DMSO; positive = increased, negative = decreased susceptibility, 1 = no effect
[4] = system: Salmonella enterica subsp. enterica ATCC 14028; assay: as above; assay type: cell-based; conditions: S. enterica ATCC 14028; MIC in the presence of 1.0% DMSO / MIC in the presence of 0.1 mM potentiator compound and 1.0% DMSO; positive = increased, negative = decreased susceptibility, 1 = no effect
[5] = system: Enterobacter aerogenes ATCC 13048; assay: as above; assay type: cell-based; conditions: E. aerogenes ATCC 13048; MIC in the presence of 1.0% DMSO / MIC in the presence of 0.1 mM potentiator compound and 1.0% DMSO; positive = increased, negative = decreased susceptibility, 1 = no effect
[6] = system: Pseudomonas aeruginosa PAO1; assay: as above; assay type: cell-based; conditions: P. aeruginosa PAO1; MIC in the presence of 1.0% DMSO / MIC in the presence of 0.1 mM potentiator compound and 1.0% DMSO; positive = increased, negative = decreased susceptibility, 1 = no effect
[7] = system: Acinetobacter baumannii ATCC 15308; assay: as above; assay type: cell-based; conditions: A. baumannii ATCC 15308; MIC in the presence of 1.0% DMSO / MIC in the presence of 0.1 mM potentiator compound and 1.0% DMSO; positive = increased, negative = decreased susceptibility, 1 = no effect
A. baumannii 6963 [8] = assay: Colistin broth microdilution MIC with potentiator compounds, resistant clinical isolates (Example 3); assay type: cell-based, Acinetobacter baumannii; conditions: MIC in the presence of 1.0% DMSO / MIC in the presence of 0.1 mM compound and 1.0% DMSO, positive = increased susceptibility, 1 = no effect
Method: (§1) The potentiator effect of the compound of the invention and other compounds disclosed herein was tested using colistin sulfate as antibiotic and in combination with the enhancer compounds in front of resistant clinical isolates.
(§2) Tests were performed to determine the potentiator effect of the compound of the invention and other compounds disclosed herein with multidrug-resistant S. maltophilia and A. baumannii clinical strains as shown in Table 5: TABLE 5
(§3) For this experiment the potentiator compound was added to a colistin broth microdilution assay at a final concentration of 0.1mM. MICs were determined as described in the Example 1.
(§4) Colistin minimal inhibitory concentration (MIC), expressed in µg/mL, and the fold increase in bacterial susceptibility to colistin when combined with the potentiator compound (expressed as MIC in the presence of 1.0% DMSO / MIC in the presence of 0.1 mM of each potentiator compound and 1.0% DMSO) are shown in Table 6: […]

A. baumannii 6799 [9] = assay: as above; assay type: cell-based, Acinetobacter baumannii; conditions: MIC in the presence of 1.0% DMSO / MIC in the presence of 0.1 mM compound and 1.0% DMSO, positive = increased susceptibility, 1 = no effect
Method: as §1, §2, §3, §4

[10] = system: Pseudomonas aeruginosa ATCC 27853; assay: Colistin broth microdilution MIC with potentiator compounds (Example 1); assay type: cell-based; conditions: P. aeruginosa ATCC 27853; MIC in the presence of 1.0% DMSO / MIC in the presence of 0.1 mM potentiator compound and 1.0% DMSO; positive = increased, negative = decreased susceptibility, 1 = no effect
S. maltophilia M30 = assay: Colistin broth microdilution MIC with potentiator compounds, resistant clinical isolates (Example 3); assay type: cell-based, Stenotrophomonas maltophilia; conditions: MIC in the presence of 1.0% DMSO / MIC in the presence of 0.1 mM compound and 1.0% DMSO, positive = increased susceptibility, 1 = no effect
Method: as §1, §2, §3, §4

S. maltophilia 257 [11] = assay: as above; assay type: cell-based, Stenotrophomonas maltophilia; conditions: MIC in the presence of 1.0% DMSO / MIC in the presence of 0.1 mM compound and 1.0% DMSO, positive = increased susceptibility, 1 = no effect
Method: as §1, §2, §3, §4

[12] = system: S. maltophilia ATCC 13637; assay: Broth microdilution MIC of other antibiotics with potentiator compounds (Example 2); assay type: cell-based, Stenotrophomonas maltophilia
Method: (§5) Following the procedure of Example 1, ciprofloxacin, amikacin, levofloxacin, tigecycline, imipenem and the combination trimethoprim/sulfamethoxasole (1:19) were tested. All were purchased from Sigma-Aldrich Co.
(§6) Minimal inhibitory concentration (MIC) of the antibiotic or the test combinations were determined by the broth microdilution method.
(§7) Antibiotic stock solutions were prepared according to CLSI recommendations and sterilizing by passage through 0.20 µm filters.
(§8) Antimicrobial susceptibility testing of these isolates was performed using the broth microdilution (BMD) method, according to CLSI guidelines.
(§9) The fold increase in bacterial susceptibility to antibiotics when combined with the potentiator compound (expressed as MIC in the presence of 1.0% DMSO / MIC in the presence of 0.1 mM of each potentiator compound and 1.0% DMSO) are shown in Table 4: […]

P. aeruginosa ATCC 27853 = assay: as above; assay type: cell-based, Pseudomonas aeruginosa; conditions: for Fold increase in bacterial susceptibility to antibiotic indicated: any of ciprofloxacin, amikacin, levofloxacin, tigecycline, imipenem, TMP/SMX (1:19), 0.1 mM potentiator, 1.0% DMSO, 'none' = no antibiotic potentiated
Method: as §5, §6, §7, §8, §9

S. maltophilia 257 [13] = assay: Broth microdilution MIC of other antibiotics with potentiator compounds, clinical isolates (Example 4); assay type: cell-based, Stenotrophomonas maltophilia; conditions: any of ciprofloxacin, amikacin, levofloxacin, imipenem, TMP/SMX (1:19), 0.1 mM compound, 1.0% DMSO, 'none' = no antibiotic potentiated
Method: (§10) Following the procedure of Example 3, ciprofloxacin, amikacin, levofloxacin, imipenem and the combination trimethoprim/sulfamethoxasole (1:19) were tested. All were purchased from Sigma-Aldrich Co.
as §6, §7, §8
(§11) The fold increase in bacterial susceptibility to antibiotics when combined with the potentiator compound (expressed as MIC in the presence of 1.0% DMSO / MIC in the presence of 0.1 mM of each potentiator compound and 1.0% DMSO) are shown in Table 7: […]

A. baumannii ATCC 15308 = assay: Broth microdilution MIC of other antibiotics with potentiator compounds (Example 2); assay type: cell-based, Acinetobacter baumannii; conditions: for Fold increase in bacterial susceptibility to TMP/SMX: Trimethoprim:sulfamethoxazole 1:19, MIC in 1.0% DMSO / MIC with 0.1 mM potentiator compound and 1.0% DMSO
Method: as §5, §6, §7, §8, §9

A. baumannii 6963 [14] = assay: Broth microdilution MIC of other antibiotics with potentiator compounds, clinical isolates (Example 4); assay type: cell-based, Acinetobacter baumannii; conditions: any of ciprofloxacin, amikacin, levofloxacin, imipenem, TMP/SMX (1:19), 0.1 mM compound, 1.0% DMSO, 'none' = no antibiotic potentiated
Method: as §10, §6, §7, §8, §11

A. baumannii 6799 [15] = assay: as above; assay type: cell-based, Acinetobacter baumannii; conditions: for Fold increase in bacterial susceptibility to TMP/SMX: Trimethoprim:sulfamethoxazole 1:19, MIC in 1.0% DMSO / MIC with 0.1 mM compound and 1.0% DMSO
Method: as §10, §6, §7, §8, §11

[16] = any of ciprofloxacin, amikacin, levofloxacin, tigecycline, imipenem, TMP/SMX (1:19), 0.1 mM potentiator, 1.0% DMSO, 'none' = no antibiotic potentiated
[17] = MIC in 1.0% DMSO / MIC with 0.1 mM potentiator compound and 1.0% DMSO

Compound | Fold increase in bacterial susceptibility to colistin [1] | Fold increase in bacterial susceptibility to colistin [2] [fold] | Fold increase in bacterial susceptibility to colistin [3] | Fold increase in bacterial susceptibility to colistin [4] | Fold increase in bacterial susceptibility to colistin [5] [fold] | Fold increase in bacterial susceptibility to colistin [6] | Fold increase in bacterial susceptibility to colistin [7] | Fold increase in bacterial susceptibility to colistin (A. baumannii 6963 [8]) | Fold increase in bacterial susceptibility to colistin (A. baumannii 6799 [9]) | Fold increase in bacterial susceptibility to colistin [10] [fold] | Fold increase in bacterial susceptibility to colistin (S. maltophilia M30) | Fold increase in bacterial susceptibility to colistin (S. maltophilia 257 [11]) | Fold increase in bacterial susceptibility to antibiotic indicated (P. aeruginosa ATCC 27853) | Fold increase in bacterial susceptibility to antibiotic indicated (S. maltophilia 257 [13]) | Fold increase in bacterial susceptibility to TMP/SMX (A. baumannii ATCC 15308) | Fold increase in bacterial susceptibility to antibiotic indicated (A. baumannii 6963 [14]) | Fold increase in bacterial susceptibility to TMP/SMX (A. baumannii 6799 [15]) | Fold increase in bacterial susceptibility to Tigecycline [12, 17] | further results
O=C(NCC(=O)N1CCN(c2cccc(Cl)c2)CC1)c1cccc(NC(=O)c2cccnc2)c1 [IIC, N-[3-[[2-[4-(3-chlorophenyl)piperazin-1-yl]-2-oxoethyl]carbamoyl]-phenyl]pyridine-3-carboxamide] | +4 fold | 1 | 1 fold | 1 fold | 1 | 1 fold | +4 fold | +2 fold | +2 fold | 1 | +16 fold | 1 fold |  |  |  |  |  |  | 
CCOC(=O)c1cc2cc(C(=O)N3CCN(Cc4cccc(C(F)(F)F)c4)CC3)ccc2[nH]1 [IIB, ethyl 5-[4-[[3-(trifluoromethyl)phenyl]methyl]piperazine-1-carbonyl]-1 H-indole-2-carboxylate] | +4 fold | 1 | +2 fold | +4 fold | 1 | +2 fold | >8 fold | +2 fold | +2 fold | 1 | +16 fold | +4 fold | none | none | TMP/SMX (2) fold | none | TMP/SMX (2) fold |  | Fold increase in bacterial susceptibility to antibiotic indicated [12, 16]: none
O=C(CCCN1C(=O)c2cccc3cccc(c23)C1=O)N1CCN(c2ccccc2O)CC1 [IIA, 2-[4-[4-(2-hydroxyphenyl)piperazin-1-yl]-4-oxobutyl]benzo[de]isoquinoline-1,3-dione] | +4 fold | 1 | +2 fold | +2 fold | 1 | 1 fold | +4 fold | +2 fold | +2 fold | -2 | +8 fold | 1 fold |  | none | Amikacin (2) TMP/SMX (2) fold | none | Amikacin (2) TMP/SMX (2) fold | Tigecycline (2) fold | Fold increase in bacterial susceptibility to Imipenem (P. aeruginosa ATCC 27853; [17]): Imipenem (2) fold; Fold increase in bacterial susceptibility to Amikacin (A. baumannii ATCC 15308; [17]): Amikacin (2) TMP/SMX (2) fold; Fold increase in bacterial susceptibility to Amikacin (A. baumannii 6799 [15]; MIC in 1.0% DMSO / MIC with 0.1 mM compound and 1.0% DMSO): Amikacin (2) TMP/SMX (2) fold
N#Cc1cccc(CN2CCC(c3cnn(Cc4cccc(C#N)c4)c3)CC2)c1 [IID, 3-[[4-[1-[(3-cyanophenyl)methyl]pyrazol-4-yl]piperidin-1-yl]methyl]-benzonitrile] | +8 fold | 1 | 1 fold | 1 fold | 1 | 1 fold | +4 fold | +4 fold | 1 fold | 1 | +16 fold | 1 fold | none |  |  |  |  | Ciprofloxacin (2) Tigecycline (2) fold | Fold increase in bacterial susceptibility to Ciprofloxacin [12, 17]: Ciprofloxacin (2) Tigecycline (2) fold; Fold increase in bacterial susceptibility to antibiotic indicated (A. baumannii ATCC 15308; [16]): none
